Patent US20250073337A1, “NOVEL SKIN-PERMEABLE PEPTIDE, COMPOSITION INCLUDING THE SAME FOR SKIN AND MUCOUS MEMBRANE, AND USE THEREOF” (CELLICON LAB INC., priority 2022, published 2025)

Assays:
[1] = tested on: actual human skin; details: mixture of peptide and caffeine vs caffeine alone, measured over time; FIG. 2
Method: A mixture of the skin-permeable peptide of SEQ ID NO: 8 and caffeine or caffeine alone was treated to evaluate skin permeability thereof.
In detail, Franz diffusion cell assay was performed using actual human skin as in Example 1, and the permeation amount of caffeine was measured by HPLC and then compared (FIG. 2).

[2] = tested on: human skin; details: mixed with peptide vs treated alone; FIG. 3
Method: The FITC conjugation method was performed in accordance with the manufacturer's instructions by purchasing an FITC conjugation kit (Lightning-Link® (ab188285)) from Abcam (Cambridge, MA, USA).

[3] = tested on: human skin; details: mixture of peptide and fluorescein liposome (180 nm) vs liposome alone, 3 hours; FIG. 4
Method: Aqueous solutions were then obtained through Franz diffusion cell assay, and FITC fluorescence values were analyzed using a fluorescence microplate reader (SpectraMax i3, Molecular Devices, USA).
Fluorescein was liposomized using a liposome kit purchased from Sigma Aldrich (MO, USA) and liposomizing Fluorescein was used as liposome for the skin permeability tests.

[4] = tested on: HDF cells; experiment: Collagen production in HDF cells (Collagen type I ELISA); format: cell-based; details: mixture of peptide and KTTKS peptide vs KTTKS alone, 48 hours; FIG. 5
Method: In order to examine the efficacy improvement of the bioactive material due to the skin permeation effect of the active ingredient by the peptide of SEQ ID NO: 8, HDF cells were treated with a mixture of KTTKS peptide, which is a bioactive material, and the peptide of SEQ ID NO: 8, or treated with KTTKS peptide alone, and collagen production amounts were analyzed using an ELISA assay.
HDF cells used in this experiment were purchased from Thermo Fisher Scientific (Waltham, MA, USA). HDF cells were cultured in Dulbecco's Modified Eagle's Medium (DMEM) supplemented with 10% fetal bovine serum (FBS), 100 U/mL penicillin, and 100 μg/mL streptomycin (Gipco, Life Technologies, Grand Island, NY, USA) and cultured in a 5% CO2 incubator at 37° C.
HDF cells at a density of 2×10^5 cells/mL were dispensed in a volume of 250 μL in 48 wells and allowed to stabilize for 24 hours. Samples were treated at different concentrations and cultured in a CO2 incubator for 48 hours, and then each culture was obtained. […] 100 μL of TMB substrate was dispensed therein, left in the dark for 30 minutes, and treated with 50 μL of a stop solution, and then absorbance was measured at 450 nm with a microspectrophotometer (Molecular Device, Sunnyvale, CA, USA).

[5] = tested on: real human skin; details: mixture of peptide and lidocaine, 2 mM sample, 6 hours; compared with known peptide (TAT) and with lidocaine alone; FIG. 1
Method: A mixture of skin-permeable peptides consisting of any one amino acid sequence selected from SEQ ID NO: 5 to SEQ ID NO: 8 and derivatives thereof of SEQ ID NO: 1 to SEQ ID NO: 4, or the known peptide and lidocaine, or lidocaine alone was treated to evaluate skin permeability.
In detail, to evaluate the skin permeability, real human skin was used and the skin permeability was measured by a Franz diffusion cell assay, and the permeation amount of lidocaine was measured by HPLC and then compared.
Human skin used in this experiment was purchased from UMC Science Co., Ltd., Korea, and phosphate-buffered saline (PBS, Gibco, USA) was purchased from Sigma-Aldrich. […]
The temperature of the receptor fluid was maintained constant at 32° C.±1° C., and the humidity was maintained at 30-70%, followed by stabilization for 30 minutes. […] 6 hours later, sampling was performed through a sampling arm of the receptor, and for quantification, STD (100 μM standard sample) and the sample were analyzed through HPLC, and the permeability was expressed as a percentage (%) as compared to STD.

H-RKLFRKILKYLR-OH [SEQ ID NO: 8, H2N-[Arg-Lys-Leu-Phe-Arg-Lys-Ile-Leu-Lys-Tyr-Leu-Arg]-CO2H]
skin permeation amount of caffeine [1]: significantly superior | skin permeability effect of 3 kDa FITC-conjugated collagen [2]: strong skin permeability effects | skin permeability effect of 30 kDa FITC-conjugated collagen [2]: strong skin permeability effects | skin permeability effect of 300 kDa FITC-conjugated collagen [2]: strong skin permeability effects | skin permeability effect of 800 kDa hyaluronic acid (HA) [2]: strong skin permeability effects | skin permeation effect of the liposome [3]: remarkably increased | production amount of collagen [4]: significantly increased | skin permeation amount of lidocaine [5]: highest effect
